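Compound exposure: 48 hours, 5 concentrations, 96-well plates. GI50: concentration for 50% inhibition of growth.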 The source made the active and inactive calls. No stated cut-off is given here; in the data, active = GI50 up to about 1.1 µM and inactive = higher.
Key:
Assay in all cases: DTP human tumour cell line panel, 48 h
786-0 = test system: 786-0
A498 = test system: A498
A549 = test system: A549
ACHN = test system: ACHN
BT-549 = test system: BT-549
CAKI-1 = test system: CAKI-1
CCRF-CEM = test system: CCRF-CEM
COLO 205 = test system: COLO 205
DU-145 = test system: DU-145
EKVX = test system: EKVX
HCT-116 = test system: HCT-116
HCT-15 = test system: HCT-15
HL-60 = test system: HL-60
HOP-62 = test system: HOP-62
HT-29 = test system: HT-29
Hs-578T = test system: Hs-578T
IGROV-1 = test system: IGROV-1
K562 = test system: K562
LOX IMVI = test system: LOX IMVI
M14 = test system: M14
MCF7 = test system: MCF7
MDA-MB-231 = test system: MDA-MB-231
MDA-MB-435 = test system: MDA-MB-435
MDA-N = test system: MDA-N
MOLT-4 = test system: MOLT-4
Malme-3M = test system: Malme-3M
NCI-H23 = test system: NCI-H23
NCI-H522 = test system: NCI-H522
NCI/ADR-RES = test system: NCI/ADR-RES
OVCAR-3 = test system: OVCAR-3
OVCAR-4 = test system: OVCAR-4
OVCAR-5 = test system: OVCAR-5
OVCAR-8 = test system: OVCAR-8
PC-3 = test system: PC-3
RPMI-8226 = test system: RPMI-8226
RXF 393 = test system: RXF 393
SF-268 = test system: SF-268
SF-295 = test system: SF-295
SF-539 = test system: SF-539
SK-MEL-28 = test system: SK-MEL-28
SK-MEL-2 = test system: SK-MEL-2
SK-MEL-5 = test system: SK-MEL-5
SK-OV-3 = test system: SK-OV-3
SN12C = test system: SN12C
SNB-75 = test system: SNB-75
SR = test system: SR
SW-620 = test system: SW-620
T47D = test system: T47D
TK-10 = test system: TK-10
U-251 = test system: U-251
UACC-257 = test system: UACC-257
UACC-62 = test system: UACC-62
UO-31 = test system: UO-31
HCC 2998 = test system: HCC 2998
HOP-92 = test system: HOP-92
NCI-H226 = test system: NCI-H226
SNB-19 = test system: SNB-19

SMILES: OC1(c2ccccc2)CC2CCC(C1)N2CCCC1(c2ccc(F)cc2)OCCO1 (stereo not drawn)
- GI50 (786-0): 18.2 µM (inactive)
- GI50 (A498): > 100 µM (inactive)
- GI50 (A549): > 100 µM (inactive)
- GI50 (ACHN): > 100 µM (inactive)
- GI50 (BT-549): > 100 µM (inactive)
- GI50 (CAKI-1): > 100 µM (inactive)
- GI50 (CCRF-CEM): 3.66 µM (inactive)
- GI50 (COLO 205): 69.8 µM (inactive)
- GI50 (DU-145): > 100 µM (inactive)
- GI50 (EKVX): > 100 µM (inactive)
- GI50 (HCT-116): > 100 µM (inactive)
- GI50 (HCT-15): > 100 µM
- GI50 (HL-60): 6.78 µM (inactive)
- GI50 (HOP-62): > 100 µM (inactive)
- GI50 (HT-29): 36.5 µM (inactive)
- GI50 (Hs-578T): > 100 µM (inactive)
- GI50 (IGROV-1): > 100 µM (inactive)
- GI50 (K562): > 100 µM (inactive)
- GI50 (LOX IMVI): > 100 µM (inactive)
- GI50 (M14): 21 µM (inactive)
- GI50 (MCF7): > 100 µM (inactive)
- GI50 (MDA-MB-231): > 100 µM (inactive)
- GI50 (MDA-MB-435): > 100 µM (inactive)
- GI50 (MDA-N): > 100 µM (inactive)
- GI50 (MOLT-4): 47.2 µM (inactive)
- GI50 (Malme-3M): 98.4 µM (inactive)
- GI50 (NCI-H23): > 100 µM (inactive)
- GI50 (NCI-H522): > 100 µM (inactive)
- GI50 (NCI/ADR-RES): 15.6 µM (inactive)
- GI50 (OVCAR-3): > 100 µM (inactive)
- GI50 (OVCAR-4): > 100 µM (inactive)
- GI50 (OVCAR-5): 79.3 µM (inactive)
- GI50 (OVCAR-8): 16.3 µM (inactive)
- GI50 (PC-3): 22.5 µM (inactive)
- GI50 (RPMI-8226): 61.4 µM (inactive)
- GI50 (RXF 393): 59.7 µM (inactive)
- GI50 (SF-268): > 100 µM (inactive)
- GI50 (SF-295): 3.26 µM (inactive)
- GI50 (SF-539): > 100 µM (inactive)
- GI50 (SK-MEL-28): 36.1 µM (inactive)
- GI50 (SK-MEL-2): > 100 µM (inactive)
- GI50 (SK-MEL-5): 21.3 µM (inactive)
- GI50 (SK-OV-3): > 100 µM (inactive)
- GI50 (SN12C): > 100 µM (inactive)
- GI50 (SNB-75): > 100 µM (inactive)
- GI50 (SR): 27.3 µM (inactive)
- GI50 (SW-620): > 100 µM (inactive)
- GI50 (T47D): > 100 µM (inactive)
- GI50 (TK-10): > 100 µM (inactive)
- GI50 (U-251): > 100 µM (inactive)
- GI50 (UACC-257): 28.1 µM (inactive)
- GI50 (UACC-62): > 100 µM (inactive)
- GI50 (UO-31): 54.3 µM (inactive)

SMILES: C1CCNCC1.CN(C)c1ccc(/C=C2/NC(=S)NC2=O)cc1
- GI50 (786-0): > 100 µM (inactive)
- GI50 (A549): 46.8 µM (inactive)
- GI50 (ACHN): 64.7 µM (inactive)
- GI50 (BT-549): 49.4 µM (inactive)
- GI50 (CAKI-1): 62.5 µM (inactive)
- GI50 (CCRF-CEM): 24.9 µM (inactive)
- GI50 (COLO 205): 49.9 µM (inactive)
- GI50 (DU-145): 62.1 µM (inactive)
- GI50 (EKVX): 50.4 µM (inactive)
- GI50 (HCC 2998): 7.26 µM (inactive)
- GI50 (HCT-116): 23.3 µM (inactive)
- GI50 (HCT-15): 45.3 µM
- GI50 (HL-60): 19.7 µM (inactive)
- GI50 (HOP-62): > 100 µM (inactive)
- GI50 (HOP-92): 61.8 µM (inactive)
- GI50 (HT-29): 34.6 µM (inactive)
- GI50 (Hs-578T): > 100 µM (inactive)
- GI50 (IGROV-1): 59.6 µM (inactive)
- GI50 (LOX IMVI): 49 µM (inactive)
- GI50 (M14): 68.1 µM (inactive)
- GI50 (MCF7): 62.4 µM (inactive)
- GI50 (MDA-MB-231): > 100 µM (inactive)
- GI50 (MDA-MB-435): 27.2 µM (inactive)
- GI50 (MDA-N): 36.3 µM (inactive)
- GI50 (MOLT-4): 28.2 µM (inactive)
- GI50 (Malme-3M): > 100 µM (inactive)
- GI50 (NCI-H226): 41.1 µM (inactive)
- GI50 (NCI-H23): 61.5 µM (inactive)
- GI50 (NCI-H522): 65.2 µM (inactive)
- GI50 (NCI/ADR-RES): 77.4 µM (inactive)
- GI50 (OVCAR-3): 43.9 µM (inactive)
- GI50 (OVCAR-4): > 100 µM (inactive)
- GI50 (OVCAR-5): > 100 µM (inactive)
- GI50 (OVCAR-8): 97.9 µM (inactive)
- GI50 (PC-3): 56.4 µM (inactive)
- GI50 (RPMI-8226): 24.5 µM (inactive)
- GI50 (RXF 393): 37.6 µM (inactive)
- GI50 (SF-268): 82 µM (inactive)
- GI50 (SF-295): 40.5 µM (inactive)
- GI50 (SF-539): 35.2 µM (inactive)
- GI50 (SK-MEL-28): 87.3 µM (inactive)
- GI50 (SK-MEL-2): > 100 µM (inactive)
- GI50 (SK-MEL-5): 30.8 µM (inactive)
- GI50 (SK-OV-3): 69.3 µM (inactive)
- GI50 (SN12C): > 100 µM (inactive)
- GI50 (SNB-19): 86.7 µM (inactive)
- GI50 (SNB-75): 49.7 µM (inactive)
- GI50 (SR): 29.6 µM (inactive)
- GI50 (SW-620): 37.8 µM (inactive)
- GI50 (T47D): 30.1 µM (inactive)
- GI50 (TK-10): 59 µM (inactive)
- GI50 (U-251): 73.3 µM (inactive)
- GI50 (UACC-257): 72.8 µM (inactive)
- GI50 (UACC-62): 36.8 µM (inactive)
- GI50 (UO-31): 44.5 µM (inactive)

Source: ChEMBL document CHEMBL1201862, “PubChem BioAssay data set” (2004)
